Measured values taken from patent US9290478B2, “Substituted quinoxalines as FGFR kinase inhibitors” (ASTEX THERAPEUTICS LTD, priority 2010, dated 2016).

Key:
FGFR4 (h) = FGFR4 (h) (Homo sapiens, UniProt P22455); assay: FGFR4 (enzymatic assay), TR-FRET; format: biochemical; conditions: 5 μM ATP; for IC50: read-out: FGFR4 pIC50 (converted)
Method: (§1) In a final reaction volume of 30 μL, FGFR4 (h) (60 ng/ml) was incubated with 50 mM HEPES pH 7.5, 6 mM MnCl2, 1 mM DTT, 0.1 mM Na3VO4, 0.01% Triton-X-100, 500 nM Btn-Flt3 and 5 μM ATP in the presence of compound (1% DMSO final). After incubation for 60 minutes at room temperature the reaction was stopped with 2.27 nM EU-anti P-Tyr, 7 mM EDTA, 31.25 nM SA-XL-665 and 0.02% BSA which was present for 60 minutes at room temperature. Time-Resolved Fluorescence Resonance Energy Transfer (TR-FRET) signal (ex340 nm. Em 620 nm, em 655 nm) was measured afterwards and results are expressed in RFU (Relative Fluorescence Units). In this assay, the inhibitory effect of different compound concentrations (range 10 μM to 0.1 nM) was determined and used to calculate an IC50 (M) and pIC50 (−log IC50) value.

[1] = tested on: Ba/F3-FGFR1-transfected cells; assay: Ba/F3-FGFR1 (minus IL3 or plus IL3) cellular proliferation assay; format: cell-based; conditions: plus 10 ng/ml murine IL3 (counterscreen); for IC50: 24 h, read-out: BAF3-FGFR1 (PLUS IL3) pIC50 (converted)
Method: (§2) Ba/F3-FGFR1 (Minus IL3 or Plus IL3) (Cellular Proliferation Assay)
(§3) In a 384 well plate, 100 nl of compound dilution in DMSO was sprayed before adding 50 μl cell culture medium (phenol red free RPMI-1640, 10% FBS, 2 mM L-Glutamine and 50 μg/ml Gentamycin) containing 20000 cells per well of Ba/F3-FGFR1-transfected cells. Cells were put in an incubator at 37° C. and 5% CO2. After 24 hours, 10 μl of Alamar Blue solution (0.5 mM K3Fe(CN)6, 0.5 mM K4Fe(CN)6, 0.15 mM Resazurin and 100 mM Phosphate Buffer) was added to the wells, incubated for 4 hours at 37° C. and 5% CO2 before RFU's (Relative Fluorescence Units) (ex. 540 nm., em. 590 nm.) were measured in a fluororescence plate reader.
(§4) In this assay, the inhibitory effect of different compound concentrations (range 10 μM to 0.1 nM) was determined and used to calculate an IC50 (M) and pIC50 (−log IC50) value.
(§5) As a counterscreen the same experiment was performed in the presence of 10 ng/ml murine IL3.

[2] = target: T1, Ba/F3-FGFR1-transfected cells (Homo sapiens, UniProt P11362); assay: as above; format: cell-based; conditions: minus IL3
T1 construct: BAF3-FGFR1 (MIN IL3) pIC50; other: minus IL3
Method: as §2, §3, §4, §5

[3] = target: T2, Ba/F3-KDR-transfected cells (Homo sapiens, UniProt P35968); assay: Ba/F3-KDR (minus IL3 or plus IL3) cellular proliferation assay; format: cell-based; conditions: minus IL3
T2 construct: BAF3-KDR (MIN IL3) pIC50; other: minus IL3
Method: (§6) Ba/F3-KDR (Minus IL3 or Plus IL3) (Cellular Proliferation Assay)
as §3, with “nI” for “nl”, “Ba/F3-KDR-transfected” for “Ba/F3-FGFR1-transfected”
(§7) In this assay, the inhibitory effect of different compound concentrations (range 10 μM to 0.1 nM) was determined and used to calculate an IC50 (M) and pIC50 (−log IC50) value. As a counterscreen the same experiment was performed in the presence of 10 ng/ml murine IL3.

[4] = tested on: Ba/F3-KDR-transfected cells; assay: as above; format: cell-based; conditions: plus 10 ng/ml murine IL3 (counterscreen); for IC50: 24 h, read-out: BAF3-KDR (PLUS IL3) pIC50 (converted)
Method: as §6
as §3, with “nI” for “nl”, “Ba/F3-KDR-transfected” for “Ba/F3-FGFR1-transfected”
as §7

FGFR1 (h) = FGFR1 (h) (Homo sapiens, UniProt P11362); assay: FGFR1 (enzymatic assay), TR-FRET; format: biochemical; conditions: 5 μM ATP; read-out: FGFR1 pIC50 (converted)
Method: as §1, with “FGFR1” for “FGFR4”, “(25” for “(60”

[5] = tested on: Ba/F3-FGFR3-transfected cells; assay: Ba/F3-FGFR3 (minus IL3 or plus IL3) cellular proliferation assay; format: cell-based; conditions: plus 10 ng/ml murine IL3 (counterscreen); for IC50: 24 h, read-out: BAF3-FGFR3 (PLUS IL3) pIC50 (converted)
Method: (§8) Ba/F3-FGFR3 (Minus IL3 or Plus IL3) (Cellular Proliferation Assay)
as §3, with “nI” for “nl”, “Ba/F3-FGFR3-transfected” for “Ba/F3-FGFR1-transfected”
as §7

[6] = target: T3, Ba/F3-FGFR3-transfected cells (Homo sapiens, UniProt P22607); assay: as above; format: cell-based; conditions: minus IL3
T3 construct: BAF3-FGFR3 (MIN IL3) pIC50; other: minus IL3
Method: as §8
as §3, with “nI” for “nl”, “Ba/F3-FGFR3-transfected” for “Ba/F3-FGFR1-transfected”
as §7

T1 sequence (P11362 whole entry, change not shown): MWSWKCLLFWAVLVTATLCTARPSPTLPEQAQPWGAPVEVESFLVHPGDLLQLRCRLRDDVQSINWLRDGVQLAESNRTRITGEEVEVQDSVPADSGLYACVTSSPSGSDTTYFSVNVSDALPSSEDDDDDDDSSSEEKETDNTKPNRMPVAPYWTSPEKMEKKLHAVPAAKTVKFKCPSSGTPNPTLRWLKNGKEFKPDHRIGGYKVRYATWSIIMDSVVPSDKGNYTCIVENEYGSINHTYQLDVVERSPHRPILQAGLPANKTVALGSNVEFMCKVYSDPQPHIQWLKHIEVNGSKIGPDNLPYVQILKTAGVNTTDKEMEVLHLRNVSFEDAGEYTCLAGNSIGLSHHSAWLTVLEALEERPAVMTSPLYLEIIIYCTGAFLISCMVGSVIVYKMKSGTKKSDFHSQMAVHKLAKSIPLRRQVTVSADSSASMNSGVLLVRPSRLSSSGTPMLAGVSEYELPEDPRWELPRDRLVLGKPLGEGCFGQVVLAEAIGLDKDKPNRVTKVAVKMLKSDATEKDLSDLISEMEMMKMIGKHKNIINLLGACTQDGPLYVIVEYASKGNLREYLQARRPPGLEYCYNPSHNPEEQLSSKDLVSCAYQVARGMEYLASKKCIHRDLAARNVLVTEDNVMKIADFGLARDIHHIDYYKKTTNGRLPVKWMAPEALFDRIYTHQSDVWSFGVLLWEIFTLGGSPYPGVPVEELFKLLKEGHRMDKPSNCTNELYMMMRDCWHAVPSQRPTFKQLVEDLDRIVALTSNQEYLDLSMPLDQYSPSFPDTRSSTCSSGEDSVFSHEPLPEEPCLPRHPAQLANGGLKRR
Chain of FGFR4 (h) (P22455 22-802): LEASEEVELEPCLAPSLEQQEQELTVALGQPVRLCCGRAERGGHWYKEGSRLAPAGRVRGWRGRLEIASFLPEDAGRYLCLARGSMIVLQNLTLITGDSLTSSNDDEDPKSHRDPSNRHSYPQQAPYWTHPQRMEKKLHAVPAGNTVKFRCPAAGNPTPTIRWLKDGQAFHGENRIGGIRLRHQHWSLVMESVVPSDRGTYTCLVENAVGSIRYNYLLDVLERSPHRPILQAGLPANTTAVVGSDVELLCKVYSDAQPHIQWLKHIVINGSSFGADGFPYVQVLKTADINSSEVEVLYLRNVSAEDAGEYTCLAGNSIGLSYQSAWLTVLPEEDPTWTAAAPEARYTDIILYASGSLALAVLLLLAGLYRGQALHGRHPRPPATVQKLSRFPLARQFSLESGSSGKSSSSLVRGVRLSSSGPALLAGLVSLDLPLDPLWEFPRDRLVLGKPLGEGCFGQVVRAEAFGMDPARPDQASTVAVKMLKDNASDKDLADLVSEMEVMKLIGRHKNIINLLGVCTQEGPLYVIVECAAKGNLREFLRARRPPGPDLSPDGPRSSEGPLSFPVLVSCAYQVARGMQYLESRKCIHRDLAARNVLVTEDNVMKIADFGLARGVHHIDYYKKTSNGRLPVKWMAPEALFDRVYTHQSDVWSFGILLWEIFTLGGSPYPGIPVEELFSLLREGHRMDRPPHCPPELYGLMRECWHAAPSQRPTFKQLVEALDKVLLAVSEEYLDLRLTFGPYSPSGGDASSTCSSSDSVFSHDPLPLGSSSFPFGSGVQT
T3 sequence (P22607 whole entry, change not shown): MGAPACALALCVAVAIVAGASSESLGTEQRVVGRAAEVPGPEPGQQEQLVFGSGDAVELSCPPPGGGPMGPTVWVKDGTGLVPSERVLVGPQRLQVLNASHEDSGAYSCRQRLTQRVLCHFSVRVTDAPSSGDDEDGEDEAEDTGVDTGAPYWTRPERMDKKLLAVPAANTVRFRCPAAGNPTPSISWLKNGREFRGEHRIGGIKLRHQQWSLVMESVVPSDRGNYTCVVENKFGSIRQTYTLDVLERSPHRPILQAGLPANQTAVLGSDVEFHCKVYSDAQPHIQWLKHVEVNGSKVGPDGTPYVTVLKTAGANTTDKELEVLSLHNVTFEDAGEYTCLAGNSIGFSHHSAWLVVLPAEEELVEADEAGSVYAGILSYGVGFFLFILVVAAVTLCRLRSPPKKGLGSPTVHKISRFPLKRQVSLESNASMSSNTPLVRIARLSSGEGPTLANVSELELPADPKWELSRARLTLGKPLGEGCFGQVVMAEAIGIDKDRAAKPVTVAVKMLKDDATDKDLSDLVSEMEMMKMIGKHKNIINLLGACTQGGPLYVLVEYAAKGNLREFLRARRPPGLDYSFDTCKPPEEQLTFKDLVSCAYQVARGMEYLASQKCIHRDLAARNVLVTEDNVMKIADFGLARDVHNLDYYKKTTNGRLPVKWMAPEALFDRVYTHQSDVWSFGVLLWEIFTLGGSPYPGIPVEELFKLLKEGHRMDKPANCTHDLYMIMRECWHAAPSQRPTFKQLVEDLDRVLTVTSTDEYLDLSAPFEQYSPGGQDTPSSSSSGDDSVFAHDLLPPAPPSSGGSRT
Chain of FGFR1 (h) (P11362 22-822): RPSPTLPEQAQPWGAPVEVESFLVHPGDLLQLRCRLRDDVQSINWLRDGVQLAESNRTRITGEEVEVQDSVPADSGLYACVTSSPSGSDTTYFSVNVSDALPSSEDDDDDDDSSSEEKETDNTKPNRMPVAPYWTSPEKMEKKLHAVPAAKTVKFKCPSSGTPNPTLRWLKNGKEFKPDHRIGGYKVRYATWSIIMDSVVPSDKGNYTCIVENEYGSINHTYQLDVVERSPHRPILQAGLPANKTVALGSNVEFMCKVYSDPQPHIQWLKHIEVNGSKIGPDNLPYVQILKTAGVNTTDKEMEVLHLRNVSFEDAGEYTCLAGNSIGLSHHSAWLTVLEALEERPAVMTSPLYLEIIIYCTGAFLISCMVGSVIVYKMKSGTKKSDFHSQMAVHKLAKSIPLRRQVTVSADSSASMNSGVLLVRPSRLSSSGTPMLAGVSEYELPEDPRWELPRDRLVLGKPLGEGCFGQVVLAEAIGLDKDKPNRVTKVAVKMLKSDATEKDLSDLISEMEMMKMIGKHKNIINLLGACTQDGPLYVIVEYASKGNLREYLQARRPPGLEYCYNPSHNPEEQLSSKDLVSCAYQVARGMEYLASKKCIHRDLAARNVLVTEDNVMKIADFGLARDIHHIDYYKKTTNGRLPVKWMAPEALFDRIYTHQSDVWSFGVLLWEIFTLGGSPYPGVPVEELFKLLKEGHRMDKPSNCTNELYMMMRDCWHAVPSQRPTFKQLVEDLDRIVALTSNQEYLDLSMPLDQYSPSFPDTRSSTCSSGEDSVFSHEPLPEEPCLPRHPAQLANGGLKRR
T2 sequence (P35968 whole entry, change not shown): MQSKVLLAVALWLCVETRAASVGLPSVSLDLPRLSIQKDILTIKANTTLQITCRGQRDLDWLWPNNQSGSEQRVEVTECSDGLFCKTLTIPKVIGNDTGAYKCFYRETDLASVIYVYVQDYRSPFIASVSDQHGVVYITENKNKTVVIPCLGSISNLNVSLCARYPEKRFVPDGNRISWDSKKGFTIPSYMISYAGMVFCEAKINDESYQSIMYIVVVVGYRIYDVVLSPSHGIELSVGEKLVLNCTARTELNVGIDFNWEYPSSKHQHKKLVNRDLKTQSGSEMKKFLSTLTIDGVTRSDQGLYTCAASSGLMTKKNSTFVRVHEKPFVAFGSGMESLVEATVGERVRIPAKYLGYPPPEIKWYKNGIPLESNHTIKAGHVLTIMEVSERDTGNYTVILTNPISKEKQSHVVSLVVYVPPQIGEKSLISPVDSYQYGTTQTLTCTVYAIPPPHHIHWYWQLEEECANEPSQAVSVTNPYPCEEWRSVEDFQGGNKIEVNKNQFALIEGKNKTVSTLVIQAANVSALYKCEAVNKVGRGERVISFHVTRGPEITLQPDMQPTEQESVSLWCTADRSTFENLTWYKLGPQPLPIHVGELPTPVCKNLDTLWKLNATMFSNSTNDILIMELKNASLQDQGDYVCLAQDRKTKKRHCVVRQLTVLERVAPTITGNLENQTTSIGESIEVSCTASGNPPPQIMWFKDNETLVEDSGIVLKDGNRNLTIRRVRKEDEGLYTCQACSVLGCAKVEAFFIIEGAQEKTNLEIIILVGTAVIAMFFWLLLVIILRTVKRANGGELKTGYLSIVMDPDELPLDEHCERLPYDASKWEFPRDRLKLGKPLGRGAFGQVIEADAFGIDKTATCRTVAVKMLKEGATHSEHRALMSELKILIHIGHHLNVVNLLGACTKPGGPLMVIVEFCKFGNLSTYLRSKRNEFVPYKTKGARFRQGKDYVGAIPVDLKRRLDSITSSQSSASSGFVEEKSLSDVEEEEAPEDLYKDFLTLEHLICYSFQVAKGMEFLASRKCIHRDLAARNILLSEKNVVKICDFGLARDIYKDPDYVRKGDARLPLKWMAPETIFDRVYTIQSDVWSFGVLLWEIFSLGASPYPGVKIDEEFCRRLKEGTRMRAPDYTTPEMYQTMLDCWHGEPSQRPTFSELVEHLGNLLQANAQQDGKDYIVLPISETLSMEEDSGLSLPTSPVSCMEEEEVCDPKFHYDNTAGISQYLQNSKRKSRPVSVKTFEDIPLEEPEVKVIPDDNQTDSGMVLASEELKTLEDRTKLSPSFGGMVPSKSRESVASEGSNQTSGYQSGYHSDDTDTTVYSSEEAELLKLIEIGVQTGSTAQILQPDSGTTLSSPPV

Compound | IC50 (FGFR4 (h)) [µM] | BAF3-FGFR1 (MIN IL3) pIC50 [2] | BAF3-KDR (MIN IL3) pIC50 [3] | IC50 (FGFR1 (h)) [µM] | BAF3-FGFR3 (MIN IL3) pIC50 [6] | FGFR4 pIC50 (FGFR4 (h)) | IC50 [1] [µM] | IC50 [4] [µM] | IC50 [5] [µM] | BAF3-FGFR1 (PLUS IL3) pIC50 [1] | BAF3-KDR (PLUS IL3) pIC50 [4] | BAF3-FGFR3 (PLUS IL3) pIC50 [5]
COc1cc(OC)cc(C(O)(CNCCNC(C)C)c2ccc3ncc(-c4cnn(C)c4)nc3c2)c1 (single isomer, unassigned) [Compound 5] | > 1 | <5 | <5 | 0.603 | <5 | – | > 10 | > 10 | > 10 | – | – | –
COc1cc(OC)cc(C(O)(CNCCNC(C)C)c2ccc3ncc(-c4cnn(C)c4)nc3c2)c1 (single isomer, unassigned) [Compound 6] | – | <5 | <5 | 0.955 | <5 | – | – | – | – | – | – | –
COc1cc(OC)cc(C(CCNC(C)C)c2ccc3ncc(-c4cnn(C)c4)nc3c2)c1 (single isomer, unassigned) [Compound 19a] | 0.145 | 6.93 | <5 | 0.00759 | 6.67 | – | > 10 | > 10 | > 10 | – | – | –
COc1cc(OC)cc(C(NCCNC(C)C)c2ccc3ncc(-c4cnn(C)c4)nc3c2)c1.Cl (single isomer, unassigned) [Compound 24] | > 1 | 5.16 | <5 | 0.182 | 5.29 | – | > 10 | > 10 | > 10 | – | – | –
COc1cc(OC)cc(C(NCCNC(C)C)c2ccc3ncc(-c4cnn(C)c4)nc3c2)c1.Cl (single isomer, unassigned) [Compound 39] | – | <5 | <5 | > 1 | <5 | <6 | – | – | – | <5 | <5 | <5
COc1cc(OC)cc(C(CCN2CCCC2=O)c2ccc3ncc(-c4cnn(C)c4)nc3c2)c1.Cl (stereo not drawn) [Compound 7] | 0.158 | 5.52 | 5.13 | 0.0562 | 5.8 | – | > 10 | > 10 | > 10 | – | – | –

Continued, in another order:

IC50 (FGFR4 (h)) [µM] | BAF3-FGFR1 (MIN IL3) pIC50 [2] | BAF3-KDR (MIN IL3) pIC50 [3] | IC50 (FGFR1 (h)) [µM] | BAF3-FGFR3 (MIN IL3) pIC50 [6] | FGFR4 pIC50 (FGFR4 (h)) | Compound | IC50 [1] [µM] | IC50 [4] [µM] | IC50 [5] [µM] | BAF3-FGFR1 (PLUS IL3) pIC50 [1] | BAF3-KDR (PLUS IL3) pIC50 [4] | BAF3-FGFR3 (PLUS IL3) pIC50 [5]
5.5 | 5.14 | <5 | 0.661 | ~5.03 | – | COc1cc(OC)cc(C(CCNC(C)C)c2ccc3ncc(-c4cnn(C)c4)nc3c2)c1 (single isomer, unassigned) [Compound 32a] | – | – | – | <5 | <5 | <5
> 1 | <5 | <5 | ~0.891 | <5 | – | CNCC(O)(c1cc(OC)cc(OC)c1)c1ccc2ncc(-c3cnn(C)c3)nc2c1.Cl (single isomer, unassigned) [Compound 37] | > 10 | > 10 | > 10 | – | – | –
– | <5 | <5 | 0.776 | <5 | <6 | CNCC(O)(c1cc(OC)cc(OC)c1)c1ccc2ncc(-c3cnn(C)c3)nc2c1.Cl (single isomer, unassigned) [Compound 38] | – | – | – | <5 | <5 | <5
~10 | 5.58 | <5 | 0.117 | 5.17 | – | COc1cc(OC)cc(C(=O)c2ccc3ncc(-c4cnn(C)c4)nc3c2)c1 [Compound 2] | > 10 | > 10 | > 10 | – | – | –
> 10 | <5 | <5 | 2.29 | 5.29 | – | COc1cc(OC)cc(/C(=C/C#N)c2ccc3ncc(-c4cnn(C)c4)nc3c2)c1 [Compound 3] | > 10 | > 10 | > 10 | – | – | –
0.363 | 5.3 | <5 | 0.0537 | 5.76 | – | COc1cc(OC)cc(/C(=C\C#N)c2ccc3ncc(-c4cnn(C)c4)nc3c2)c1 [Compound 4] | > 10 | > 10 | > 10 | – | – | –
0.126 | 6.49 | 5.18 | 0.00776 | 6.72 | – | COc1cc(OC)cc(/C(=C\CNC(C)C)c2ccc3ncc(-c4cnn(C)c4)nc3c2)c1 [Compound 8, {(Z)-3-(3,5-Dimethoxy-phenyl)-3-[3-(1-methyl-1H-pyrazol-4-yl)-quinoxalin-6-yl]-allyl}-isopropyl-amine] | > 10 | > 10 | > 10 | – | – | –
1.48 | 6.51 | <5 | 0.0603 | 6.82 | – | COc1cc(OC)cc(/C(=C/CNC(C)C)c2ccc3ncc(-c4cnn(C)c4)nc3c2)c1 [Compound 9] | > 10 | > 10 | > 10 | – | – | –
